According to PMC12852734, “Design of precision therapeutics for a CKD risk allele by targeting Shroom3-Rock interaction” (Nature Communications, 2025):

Key:
ROCK1 [1] = target: T1, ROCK1 (Homo sapiens, UniProt Q13464)
Target sequence in this assay (Q13464 2-1354): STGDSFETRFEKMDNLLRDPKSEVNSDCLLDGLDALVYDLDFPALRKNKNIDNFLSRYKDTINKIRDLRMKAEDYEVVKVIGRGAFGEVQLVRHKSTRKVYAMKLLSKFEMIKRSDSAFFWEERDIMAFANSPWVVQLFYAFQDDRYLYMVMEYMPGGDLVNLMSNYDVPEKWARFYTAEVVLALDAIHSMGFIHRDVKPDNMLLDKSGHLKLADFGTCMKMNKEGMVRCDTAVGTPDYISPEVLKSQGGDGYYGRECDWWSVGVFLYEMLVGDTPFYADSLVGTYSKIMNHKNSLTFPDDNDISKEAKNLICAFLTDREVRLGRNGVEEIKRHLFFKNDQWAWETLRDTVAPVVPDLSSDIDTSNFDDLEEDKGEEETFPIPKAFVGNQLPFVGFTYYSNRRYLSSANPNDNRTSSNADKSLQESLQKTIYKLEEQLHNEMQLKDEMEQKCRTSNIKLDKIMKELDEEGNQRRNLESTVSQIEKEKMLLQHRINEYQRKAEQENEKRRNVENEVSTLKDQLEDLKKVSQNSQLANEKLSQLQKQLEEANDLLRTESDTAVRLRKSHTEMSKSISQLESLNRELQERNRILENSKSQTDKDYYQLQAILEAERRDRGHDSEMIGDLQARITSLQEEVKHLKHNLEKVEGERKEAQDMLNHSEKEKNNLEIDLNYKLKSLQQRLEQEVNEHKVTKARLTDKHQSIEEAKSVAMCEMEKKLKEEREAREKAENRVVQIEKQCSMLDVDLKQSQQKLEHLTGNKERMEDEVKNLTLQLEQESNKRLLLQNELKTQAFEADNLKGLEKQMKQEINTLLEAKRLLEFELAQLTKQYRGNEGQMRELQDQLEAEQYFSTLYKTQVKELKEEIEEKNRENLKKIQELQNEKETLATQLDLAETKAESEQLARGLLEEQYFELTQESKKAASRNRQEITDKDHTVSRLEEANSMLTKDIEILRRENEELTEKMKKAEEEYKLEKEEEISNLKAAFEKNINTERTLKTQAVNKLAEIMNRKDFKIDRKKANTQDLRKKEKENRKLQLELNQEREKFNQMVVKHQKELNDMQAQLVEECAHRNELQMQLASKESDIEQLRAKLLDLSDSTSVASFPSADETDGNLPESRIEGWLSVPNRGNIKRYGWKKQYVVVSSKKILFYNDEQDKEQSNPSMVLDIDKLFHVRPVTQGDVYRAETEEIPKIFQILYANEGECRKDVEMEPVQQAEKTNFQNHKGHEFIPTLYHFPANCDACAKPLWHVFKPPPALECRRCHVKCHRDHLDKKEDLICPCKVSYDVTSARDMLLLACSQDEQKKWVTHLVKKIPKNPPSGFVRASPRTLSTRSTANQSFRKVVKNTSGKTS

ROCK1 [2] = target: T1, ROCK1; assay: anti-V5 co-immunoprecipitation of SHROOM3-ROCK1 from treated WT-Sh3 HEK-293T cells; format: cell-based; set-up: with SHROOM3
Target sequence in this assay (Q13464 2-1354): as above
Target sequence in this assay (Q8TF72 whole entry partner): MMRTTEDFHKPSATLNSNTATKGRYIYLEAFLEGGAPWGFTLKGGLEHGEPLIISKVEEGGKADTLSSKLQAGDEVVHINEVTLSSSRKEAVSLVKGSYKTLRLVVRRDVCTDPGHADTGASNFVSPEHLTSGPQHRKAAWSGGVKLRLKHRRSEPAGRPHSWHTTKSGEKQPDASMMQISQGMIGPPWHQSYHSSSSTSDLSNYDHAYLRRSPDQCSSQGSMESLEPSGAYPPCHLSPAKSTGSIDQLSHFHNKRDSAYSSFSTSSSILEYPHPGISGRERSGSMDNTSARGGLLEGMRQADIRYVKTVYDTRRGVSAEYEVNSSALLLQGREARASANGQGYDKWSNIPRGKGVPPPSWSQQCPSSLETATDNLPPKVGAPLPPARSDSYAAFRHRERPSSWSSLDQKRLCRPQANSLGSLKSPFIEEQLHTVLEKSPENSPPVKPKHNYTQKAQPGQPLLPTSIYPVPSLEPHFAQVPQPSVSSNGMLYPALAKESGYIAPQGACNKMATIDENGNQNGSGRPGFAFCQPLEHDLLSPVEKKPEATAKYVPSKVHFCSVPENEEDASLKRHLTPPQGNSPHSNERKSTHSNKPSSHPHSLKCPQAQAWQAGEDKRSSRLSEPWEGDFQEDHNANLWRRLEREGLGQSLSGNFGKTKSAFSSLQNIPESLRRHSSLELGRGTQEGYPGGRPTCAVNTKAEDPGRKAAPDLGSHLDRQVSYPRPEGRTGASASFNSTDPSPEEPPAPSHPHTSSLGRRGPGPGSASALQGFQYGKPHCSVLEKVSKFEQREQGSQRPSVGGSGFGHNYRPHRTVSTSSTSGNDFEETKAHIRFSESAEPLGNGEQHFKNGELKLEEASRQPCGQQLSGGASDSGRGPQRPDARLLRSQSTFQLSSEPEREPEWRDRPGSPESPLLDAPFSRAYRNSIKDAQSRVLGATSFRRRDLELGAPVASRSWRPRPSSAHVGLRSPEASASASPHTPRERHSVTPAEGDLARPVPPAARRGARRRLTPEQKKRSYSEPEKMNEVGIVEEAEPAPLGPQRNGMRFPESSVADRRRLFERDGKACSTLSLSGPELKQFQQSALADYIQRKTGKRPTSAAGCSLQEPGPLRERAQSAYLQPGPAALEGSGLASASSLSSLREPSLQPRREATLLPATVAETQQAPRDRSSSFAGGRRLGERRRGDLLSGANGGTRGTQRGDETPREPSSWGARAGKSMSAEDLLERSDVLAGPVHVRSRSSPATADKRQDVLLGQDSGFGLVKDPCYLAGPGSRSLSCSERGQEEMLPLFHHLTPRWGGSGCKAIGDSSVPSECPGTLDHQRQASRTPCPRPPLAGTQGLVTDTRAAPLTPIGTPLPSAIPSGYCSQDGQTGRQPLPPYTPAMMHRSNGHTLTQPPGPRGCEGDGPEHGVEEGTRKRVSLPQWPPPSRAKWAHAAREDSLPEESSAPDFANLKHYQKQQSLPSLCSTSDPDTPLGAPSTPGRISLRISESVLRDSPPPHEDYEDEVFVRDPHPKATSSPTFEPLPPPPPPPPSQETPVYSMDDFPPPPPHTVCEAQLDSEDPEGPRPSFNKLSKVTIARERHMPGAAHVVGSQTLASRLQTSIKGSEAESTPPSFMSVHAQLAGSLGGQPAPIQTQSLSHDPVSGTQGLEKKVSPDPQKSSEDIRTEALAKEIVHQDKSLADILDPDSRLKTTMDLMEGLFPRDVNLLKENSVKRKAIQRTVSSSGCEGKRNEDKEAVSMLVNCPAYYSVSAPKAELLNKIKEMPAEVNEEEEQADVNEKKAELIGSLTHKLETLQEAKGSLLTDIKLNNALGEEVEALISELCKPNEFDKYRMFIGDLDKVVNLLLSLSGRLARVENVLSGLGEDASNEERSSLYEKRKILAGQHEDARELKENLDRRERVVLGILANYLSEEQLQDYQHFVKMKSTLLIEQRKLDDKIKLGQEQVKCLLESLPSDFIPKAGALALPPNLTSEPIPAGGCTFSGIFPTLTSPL

`O=c1[nH]ccc2c(S(=O)(=O)N3CCCNCC3)cccc12` [HF, Hydroxy Fasudil] was tested, and the “kinase hot spot assay in the absence of SHROOM3 (Fig. S7j)” value (ROCK1 [1]) was “HF inhibited Rock1, Rock2 (as expected), but showed significant off-target kinase inhibition (except Fyn)”.

`F[B-](F)(F)c1ccc(C2NC(=S)NC3=C2CCc2ccccc23)cc1` (centres unmarked) [D4G, potassium trifluoro (4-(2-thioxo-1,2,3,4,5,6-hexahydrobenzo [h]quinazolin-4-yl)phenyl) borate] was tested, and the “anti-V5 co-immunoprecipitation of SHROOM3-ROCK1 from treated WT-Sh3 HEK-293T cel” value (ROCK1 [2]) was “the interaction of SHROOM3 with ROCK1 was diminished with D4G-treatment vs DMSO-treatment in WT-Sh3 overexpressing HEK-293T”.
